From publication PMC9370560, “5-Demethoxy-10′-ethoxyexotimarin F, a New Coumarin with MAO-B Inhibitory Potential from Murraya exotica L” (Molecules, 2022)
Where two headings read alike, the source gives them in different places.

Legend:
MAO-B [1] = target: T1, MAO-B (Homo sapiens, UniProt P27338); details: previous studies of the authors; read-out: IC50 against MAO-B; cited from earlier work
T1 sequence (P27338 1-520): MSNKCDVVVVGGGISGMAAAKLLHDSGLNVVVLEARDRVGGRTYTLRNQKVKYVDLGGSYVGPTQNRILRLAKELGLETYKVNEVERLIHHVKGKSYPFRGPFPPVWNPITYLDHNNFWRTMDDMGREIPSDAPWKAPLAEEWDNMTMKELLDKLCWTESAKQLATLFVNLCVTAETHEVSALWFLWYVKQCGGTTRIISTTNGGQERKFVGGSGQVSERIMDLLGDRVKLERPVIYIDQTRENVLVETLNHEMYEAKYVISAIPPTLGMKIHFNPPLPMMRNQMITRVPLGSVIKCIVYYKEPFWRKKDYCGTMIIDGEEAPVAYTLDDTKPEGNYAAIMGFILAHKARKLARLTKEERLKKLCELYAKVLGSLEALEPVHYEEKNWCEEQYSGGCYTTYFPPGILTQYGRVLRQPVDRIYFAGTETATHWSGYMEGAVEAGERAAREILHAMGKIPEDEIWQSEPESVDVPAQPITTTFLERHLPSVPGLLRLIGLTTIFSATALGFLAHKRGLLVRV

[2] = system: T2, butyrylcholinesterase (BuChE); experiment: Butyrylcholinesterase inhibitory activity (Ellman's method); assay type: biochemical, human; details: 50 μM
T2 construct: acetylcholinesterase and butyrylcholinesterase derived from human erythrocytes; purchased Sigma Chemical (St. Louis, MO, USA); host or cells: human erythrocytes (so in the source)
Protocol: (§1) S-Acetylthiocholine iodide, S-butyrylthiocholineiodide, 5,5′-dithio-bis-(2-nitrobenzoic) acid (DTNB, Ellman’s reagent), acetylcholinesterase and butyrylcholinesterase derived from human erythrocytes were purchased from Sigma Chemical (St. Louis, MO, USA). The compounds were dissolved in DMSO. The reaction mixture (totally 200 μL) containing phosphate buffer (pH 8.0), test compound (50 μM), and acetyl cholinesterase (0.02 U/mL) or butyrylcholinesterase (0.016 U/mL), was incubated for 20 min (37 °C). […] All of the reactions were performed in triplicate. The percentage inhibition was calculated as follows: % inhibition = (E − S)/E × 100 (E is the activity of the enzyme without test compound, and S is the activity of the enzyme with test compound).

[3] = system: Escherichia coli (ATCC25922); experiment: Antimicrobial assay (broth dilution and Oxford cup method); assay type: cell-based; details: 100 μM
Text: (§2) The broth dilution method and Oxford cup method were used to detect antimicrobial activity against reference strains, including Salmonella enterica subsp. enterica (ATCC14028), Staphylococcus aureus subsp. aureus (ATCC29213), Escherichia coli (ATCC25922), Pseudomonas aeruginosa (ATCC27853), and Candida albicans (ATCC10231). Ceftazidime and penicillin G sodium and amphotericin B served as an antibacterial and antifungal positive control, respectively.

[4] = system: Candida albicans (ATCC10231); experiment: as above; assay type: cell-based; details: 100 μM
Text: as §2

[5] = system: Pseudomonas aeruginosa (ATCC27853); experiment: as above; assay type: cell-based; details: 100 μM
Text: as §2

[6] = system: LPS-induced NO production in RAW264.7 cells; experiment: Anti-inflammatory assay: inhibition of LPS-induced NO production; assay type: cell-based
[7] = system: Staphylococcus aureus (ATCC29213); experiment: Antimicrobial assay (broth dilution and Oxford cup method); assay type: cell-based, Staphylococcus aureus subsp. aureus; details: 100 μM
Text: as §2

[8] = system: Salmonella enterica (ATCC14028); experiment: as above; assay type: cell-based, Salmonella enterica subsp. enterica; details: 100 μM
Text: as §2

α-glucosidase = experiment: α-Glucosidase inhibition assay (4-NPGP); assay type: biochemical
Protocol: An enzyme inhibitor screening model was chosen using 4-nitro-phenol-α-D-glucopyranoside (4-NPGP) and slightly modified. Briefly, the test compound (50 μM), α-glucosidase solution (0.025 U/mL), phosphate buffer (pH 6.9), and (4-NPGP) (1 μM) were incubated in 96-well plates at 37 °C for 50 min. […] Quercetin was selected as the positive control. All of the reactions were repeated three times.

[9] = system: acetylcholinesterase (AChE); details: 50 μM
Protocol: as §1

MAO-A = target: T3, MAO-A (Homo sapiens, UniProt P21397); experiment: biochemical; details: mean ± S.E.M. from three experiments
T3 sequence (P21397 1-527): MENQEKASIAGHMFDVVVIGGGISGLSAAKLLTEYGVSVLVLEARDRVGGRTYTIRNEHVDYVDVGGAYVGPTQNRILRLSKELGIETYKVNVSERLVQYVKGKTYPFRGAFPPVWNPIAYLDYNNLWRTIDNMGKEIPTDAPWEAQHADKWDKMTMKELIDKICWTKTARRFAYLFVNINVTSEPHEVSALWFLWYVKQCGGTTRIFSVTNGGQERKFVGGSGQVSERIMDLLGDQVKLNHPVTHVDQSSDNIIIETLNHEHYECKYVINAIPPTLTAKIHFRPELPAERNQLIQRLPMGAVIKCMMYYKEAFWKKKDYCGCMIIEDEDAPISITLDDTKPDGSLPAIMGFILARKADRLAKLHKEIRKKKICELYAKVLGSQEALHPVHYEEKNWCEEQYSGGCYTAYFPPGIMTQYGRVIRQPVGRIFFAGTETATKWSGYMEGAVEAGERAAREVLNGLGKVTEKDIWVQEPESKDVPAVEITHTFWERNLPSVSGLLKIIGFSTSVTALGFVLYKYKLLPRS

MAO-B [10] = target: T1, MAO-B; experiment: biochemical

Q: Which IC50 (MAO-B [1]) does the source give for `COc1c(OC/C=C(\C)C[C@@H]2C=C(CCC(N)=O)C(=O)O2)ccc2ccc(=O)oc12` [anisucoumaramide] here?
A: The IC50 was 143.7 ± 0.9 nM.

Q: With `C=C(C)[C@H](O)[C@@H](OCC)c1c(OC)ccc(/C=C/C(=O)O[C@H](Cc2c(OC)ccc3ccc(=O)oc23)C(C)(C)O)c1O` [Compound 1, (E)-(R)-3-hydroxy-1-(7-methoxy-2-oxo-2H-chromen-8-yl)-3-methylbutan-2-yl·3-(3-((1S, 2S)-1-ethoxy-2-hydroxy-3-methylbut-3-en-1-yl)-2-hydroxy-4-methoxyphenyl)acrylate] as the molecule, how does the BuChE inhibitory activity [2] read?
A: The BuChE inhibitory activity was “did not show any inhibitory activity”.

Q: What about the “inhibitory effect against Escherichia coli (ATCC25922)” value [3] of the same molecule?
A: The value was “did not lead to a significant inhibitory effect”.

Q: And the “inhibitory effect against Candida albicans (ATCC10231)” value [4]?
A: Its value is “did not lead to a significant inhibitory effect”.

Q: And the “inhibitory effect against Pseudomonas aeruginosa (ATCC27853)” value [5]?
A: Its value is “did not lead to a significant inhibitory effect”.

Q: And the “inhibition against LPS-induced NO production” value [6]?
A: The value was 34.59%.

Q: What about the “inhibitory effect against Staphylococcus aureus (ATCC29213)” value [7] of the same molecule?
A: Its value is “did not lead to a significant inhibitory effect”.

Q: What about the “inhibitory effect against Salmonella enterica (ATCC14028)” value [8] of the same molecule?
A: The value was “did not lead to a significant inhibitory effect”.

Q: What about the “α-glucosidase percentage of inhibition” value (α-glucosidase; 50 μM) of the same molecule?
A: Its value is “less than 50%”.

Q: And the AChE inhibitory activity [9]?
A: Its AChE inhibitory activity is “did not show any inhibitory activity”.

Q: What about the IC50 (MAO-A) of the same molecule?
A: Its IC50 is 26300 ± 1030 nM.

Q: What about the “SI: MAO-B selectivity index = IC50 (MAO-A)/IC50 (MAO-B)” value (MAO-B [10]) of the same molecule?
A: Its value is 172.

Q: And the IC50 (MAO-B [10]; mean ± S.E.M. from three experiments)?
A: The IC50 was 153 ± 1.58 nM.

Q: With `[H]/N=C(/NC)NCCC[C@H](N)C(=O)O` [L-NMMA, NG-monomethyl-L-arginine, reference compound] as the molecule, how does the “inhibition against LPS-induced NO production” value [6] read?
A: Its value is 56.13%.

Q: Which “α-glucosidase inhibition (positive control)” value (α-glucosidase; concentration not given) does the source give for `O=c1c(O)c(-c2ccc(O)c(O)c2)oc2cc(O)cc(O)c12` [quercetin, reference compound] here?
A: Its value is 53.17%.
